This note sets out measurements from BindingDB's records for doi:10.1016/j.bmcl.2008.10.104 (Taisho Pharmaceutical, 2008).

Residues, ends and D or L forms follow the SMILES beside them.

In experiment [1] the target is Sodium- and chloride-dependent glycine transporter 2 (Rattus norvegicus) (UniProt P58295). As to the kind of experiment: Inhibition of [3H]glycine uptake at rat glycine transporter 2 expressed in african green monkey COS7 cells.
Experiment [2] addresses Sodium- and chloride-dependent glycine transporter 1 (Rattus norvegicus). As to the kind of experiment: Inhibition of [3H]glycine uptake at rat glycine transporter 1 expressed in african green monkey COS7 cells.

One may read the IC50 as the midpoint of a concentration-inhibition curve.

Sequence of Sodium- and chloride-dependent glycine transporter 2 (Rattus norvegicus) (P58295 whole entry, looked up): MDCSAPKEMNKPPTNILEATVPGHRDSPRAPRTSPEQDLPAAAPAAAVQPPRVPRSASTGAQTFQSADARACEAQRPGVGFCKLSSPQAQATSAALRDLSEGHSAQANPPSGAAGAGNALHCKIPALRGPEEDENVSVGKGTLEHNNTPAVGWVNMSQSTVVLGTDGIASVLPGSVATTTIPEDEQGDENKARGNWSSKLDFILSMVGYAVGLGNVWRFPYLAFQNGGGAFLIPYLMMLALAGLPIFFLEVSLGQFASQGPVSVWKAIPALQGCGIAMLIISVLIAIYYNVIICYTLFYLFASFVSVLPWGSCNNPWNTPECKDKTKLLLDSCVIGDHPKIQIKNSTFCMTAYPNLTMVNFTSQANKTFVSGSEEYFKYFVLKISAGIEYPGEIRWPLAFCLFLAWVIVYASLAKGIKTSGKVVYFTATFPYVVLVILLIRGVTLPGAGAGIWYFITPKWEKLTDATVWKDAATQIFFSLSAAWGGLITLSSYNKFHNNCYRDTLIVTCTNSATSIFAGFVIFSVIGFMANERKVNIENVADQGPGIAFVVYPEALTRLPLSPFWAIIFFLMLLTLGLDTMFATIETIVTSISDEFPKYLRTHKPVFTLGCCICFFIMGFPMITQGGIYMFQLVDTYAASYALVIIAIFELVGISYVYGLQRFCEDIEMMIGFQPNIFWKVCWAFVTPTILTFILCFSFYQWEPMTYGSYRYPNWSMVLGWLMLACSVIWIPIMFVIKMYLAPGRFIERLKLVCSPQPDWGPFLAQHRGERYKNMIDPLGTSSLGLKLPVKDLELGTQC

As to `CC[C@H](C)[C@@H]1NC(=O)[C@H](Cc2ccccc2)NC(=O)[C@H]([C@@H](C)CC)NC(=O)[C@H]([C@@H](C)CC)NC1=O` [(3S,6S,9S,12S)-3-benzyl-6,9,12-tri-sec-butyl-1,4,7,10-tetraazacyclododecane-2,5,8,11-tetraone] (cyclo(FIII)), the midpoint of inhibition in experiment [1], the IC50, lay at 226 nM.

As for `CC[C@H](C)[C@@H]1NC(=O)[C@H](C(C)C)NC(=O)[C@H](Cc2ccccc2)NC(=O)[C@H]([C@H](C)[C@@H](C)O)NC1=O` [(3S,6S,9S,12S)-3-benzyl-9-sec-butyl-6-((2S,3R)-3-hydroxybutan-2-yl)-12-isopropyl-1,4,7,10-tetraazacyclododecane-2,5,8,11-tetraone], the midpoint of inhibition in experiment [1], the IC50, lay at 450 nM.

On to `CC[C@H](C)[C@@H]1NC(=O)[C@H](Cc2ccccc2)NC(=O)[C@H]([C@H](CS(=O)(=O)O)C(C)=O)NC(=O)[C@H]([C@@H](C)CC)NC1=O` [(S)-2-((2S,5S,8S,11S)-5-benzyl-8,11-di-sec-butyl-3,6,9,12-tetraoxo-1,4,7,10-tetraazacyclododecan-2-yl)-3-oxobutane-1-sulfonic acid], for which the IC50 in experiment [2] was determined as 20.4 nM; in experiment [1], 2260 nM.

The compound `N[C@@H](COC(c1cccc(F)c1)c1ccccc1OCc1ccccc1)C(=O)O` (stereo partly drawn) [(2S)-2-amino-3-((2-(benzyloxy)phenyl)(3-fluorophenyl)methoxy)propanoic acid] returned an IC50 in experiment [1] of 21.1 nM.

Take `CC[C@H](C)[C@@H]1NC(=O)[C@H](Cc2ccccc2)NC(=O)[C@H]([C@H](C)[C@@H](C)O)NC(=O)[C@H](C(C)C)NC1=O` [(3S,6S,9S,12S)-3-benzyl-12-sec-butyl-6-((2S,3R)-3-hydroxybutan-2-yl)-9-isopropyl-1,4,7,10-tetraazacyclododecane-2,5,8,11-tetraone]: the IC50 in experiment [2] came out at 10.2 nM; in experiment [1] it was 574 nM.

In the case of `CC(C)[C@@H]1NC(=O)[C@H](Cc2ccccc2)NC(=O)[C@H]([C@H](C)[C@@H](C)O)NC(=O)[C@H](C(C)C)NC1=O` [(3S,6S,9S,12S)-3-benzyl-6-((2S,3R)-3-hydroxybutan-2-yl)-9,12-diisopropyl-1,4,7,10-tetraazacyclododecane-2,5,8,11-tetraone], the figures for the IC50 in experiment [2] and in experiment [1] were 11.1 nM and 542 nM, respectively.

Turning to `CC[C@H](C)[C@@H]1NC(=O)[C@H](Cc2ccccc2)NC(=O)[C@H]([C@H](C)[C@@H](C)O)NC(=O)[C@H]([C@@H](C)CC)NC1=O` [(3S,6S,9S,12S)-3-benzyl-9,12-di-sec-butyl-6-((2S,3R)-3-hydroxybutan-2-yl)-1,4,7,10-tetraazacyclododecane-2,5,8,11-tetraone], the values for the IC50 in experiment [2] and in experiment [1] were 3 nM and 278 nM, respectively.
